Laboratory results as given in US9434684B2, “Oxime-substituted amide compound and pest control agent” (Nissan Chemical Industries, Ltd., priority 2012, dated 2016).

Assays:
[1] = tested on: Phaeosphaeria nodorum (synonym: Septoria nodorum); test: Preventive effect against wheat glume blotch; assay type: in vivo; conditions: Parastagonospora nodorum, 192 h, test solution A 500 ppm, 2 + 6 days
Experimental: (§1) Compounds of the present invention were dissolved in a solvent for emulsion (a mixture of Sorpol (registered trademark) 3005XL (manufactured by Toho Chemical Industry Co., Ltd.): N-methylpyrrolidone:Solvesso (registered trademark) 200 (manufactured by ExxonMobil Chemical) in a ratio of 1:5:2) to prepare 20% emulsifiable concentrates. Then, distilled water was added to dilute the emulsifiable concentrates to the predetermined concentration (500 ppm), and the obtained solutions were used in the following Test Examples 1 to 7. To wheat (cultivar: Haruyutaka) in 1.3-leaf stage planted in 90 cm^3 plastic pots, 5 ml per pot of test solutions A of the compounds of the present invention were applied. On the next day, a suspension of conidium of Phaeosphaeria nodorum synonym: Septoria nodorum) was spray-inoculated to the wheat, and the pots were placed in an inoculation chamber at 20° C. under a humidity of 100% for 2 days. Then, the pots were placed in an air-conditioned greenhouse (20° C.) for 6 days. The proportion of the formed lesion in the inoculated leaves was measured to calculate the control value in accordance with the same formula as in Test Example 1. Here, the test was carried out in duplicate.

Meloidogyne incognita = test: Preventive effect on Meloidogyne incognita (garden balsam seedlings, root knot); assay type: in vivo; conditions: 504 h, test solution B 100 ppm, 1 ml per seedling, 3 weeks, read-out: efficacy (damage degree, root knot, relative to non-treated plot)
Experimental: Compounds of the present invention were dissolved in dimethylsulfoxide to prepare 1% solutions. Then, distilled water was added to dilute the solutions to the predetermined concentration (100 ppm), and the obtained solutions were used in the following Test Examples 8 to 12. 1 ml per seedling of test solutions B of the compounds of the present invention were treated to the bases of garden balsam seedlings (about 2 weeks after budding) planted in a cell tray of which each cell was filled with 10 g of soil. 1 Hour after the application, 1 ml per cell of water containing Meloidogyne incognita 2 L larvae (100 2 L larvae/1 ml) was applied to the bases. The tray was placed in a greenhouse for 3 weeks, and the root knot level formed on the root was determined in accordance with the following damage index and the damage degree to calculate the efficacy (%) relative to the non-treated plot in accordance with the following formula. <Damage Index> 0: No knot observed. 1: Knot observed on a part of the root system. 2: Knot observed on the entire root system. 3: Large knot observed. 4: Large knot observed on the entire root system. [Damage degree]=[Σ(damage index×number of seedlings at each index)/(4×number of seedlings investigated)]×100 Efficacy(%)=[1−(damage degree in treated plot/damage degree in non-treated plot)]×100

Puccinia recondita = test: Preventive effect against wheat brown leaf rust; assay type: in vivo; conditions: 216 h, test solution A 500 ppm, 1 + 8 days
Experimental: as §1, with “Norin-61-go)” for “Haruyutaka)”, “spore” for “conidium”, “Puccinia recondita” for “Phaeosphaeria nodorum synonym: Septoria nodorum)”, “1 day.” for “2 days.”, “8” for “6”

Botrytis cinerea = test: Preventive effect against cucumber gray mold (mycelium inoculation); assay type: in vivo; conditions: 48 h, test solution A 500 ppm, 2 days
Experimental: Compounds of the present invention were dissolved in a solvent for emulsion (a mixture of Sorpol (registered trademark) 3005XL (manufactured by Toho Chemical Industry Co., Ltd.): N-methylpyrrolidone:Solvesso (registered trademark) 200 (manufactured by ExxonMobil Chemical) in a ratio of 1:5:2) to prepare 20% emulsifiable concentrates. Then, distilled water was added to dilute the emulsifiable concentrates to the predetermined concentration (500 ppm), and the obtained solutions were used in the following Test Examples 1 to 7. Cucumber (cultivar: Sagami Hanjiro) was planted in 90 cm^3 plastic pots, and in the seed leaf stage, 5 ml per pot of test solutions A of the compounds of the present invention were applied. On the next day, the pots were put in a plastic container, and agar blocks (diameter: 5 mm) containing Botrytis cinerea preliminarily cultivated in a PDA medium were inoculated to the seed leaves of the cucumber treated with the solutions. After the inoculation, the plastic container was covered with a plastic sheet and humidified, and placed at 20° C. for 2 days, whereupon the proportion of the formed lesion in the inoculated leaves was measured to calculate the control value in accordance with the same formula as in Test Example 1. Here, the test was carried out in duplicate.

Row | melting point [°C] | Compound | pest or weed control at 100 µg/mL (Meloidogyne incognita) [%] | other results
1 |  | CC(C)ON=C(CNC(=O)c1ccccc1C(F)(F)F)c1ncc(Br)cc1Cl [Compound No. 2-181, N-[2-(5-bromo-3-chloropyridin-2-yl)-2-(isopropoxyimino)ethyl]-2-(trifluoromethyl)benzamide] | ≥ 50 | pest or weed control at 500 µg/mL [1]: ≥ 70%
2 |  | CC(C)ON=C(CNC(=O)c1ccccc1C(F)(F)F)c1ncc(Cl)cc1Cl [Compound No. 2-005, N-[2-(3,5-dichloropyridin-2-yl)-2-(isopropoxyimino)ethyl]-2-(trifluoromethyl)benzamide] |  | pest or weed control at 500 µg/mL (Puccinia recondita): ≥ 70%
3 |  | CC(ON=C(CNC(=O)c1ccccc1C(F)(F)F)c1ncc(Cl)cc1Cl)c1ccc(F)cc1 (stereo not drawn) [Compound No. 2-173, N-[2-(3,5-dichloropyridin-2-yl)-2-[1-(4-fluorophenyl)ethoxyimino]ethyl]-2-(trifluoromethyl)benzamide] | ≥ 50 | 
4 | 81 to 83 | CC(C)O/N=C(\CNC(=O)c1ccccc1C(F)(F)F)c1ncc(C(F)(F)F)cc1Cl [Compound No. 2-019, (E)-N-[2-[3-chloro-5-(trifluoromethyl)pyridin-2-yl]-2-(isopropoxyimino)ethyl]-2-(trifluoromethyl)benzamide] |  | 
5 | 73 to 74 | O=C(NC/C(=N/OCC1CC1)c1ncc(C(F)(F)F)cc1Cl)c1ccccc1C(F)(F)F [Compound No. 2-024, (Z)—N-[2-[3-chloro-5-(trifluoromethyl)pyridin-2-yl]-2-(cyclopropylmethoxyimino)ethyl]-2-(trifluoromethyl)benzamide] | ≥ 50 | 
6 | 98 to 101 | O=C(NC/C(=N\OCC1CC1)c1ncc(C(F)(F)F)cc1Cl)c1ccccc1C(F)(F)F [Compound No. 2-023, (E)-N-[2-[3-chloro-5-(trifluoromethyl)pyridin-2-yl]-2-(cyclopropylmethoxyimino)ethyl]-2-(trifluoromethyl)benzamide] |  | 
7 |  | CCON=C(CNC(=O)c1cn(C)nc1C(F)F)c1ncc(Cl)cc1Cl [Compound No. 17-004, N-[2-(3,5-dichloropyridin-2-yl)-2-(ethoxyimino)ethyl]-3-difluoromethyl-1-methyl-1H-pyrazole-4-carboxamide] |  | pest or weed control at 500 µg/mL [1]: ≥ 70%
8 |  | CCC(C)ON=C(CNC(=O)c1ccccc1C(F)(F)F)c1ncc(Cl)cc1Cl (stereo not drawn) [Compound No. 2-009, N-[2-(3,5-dichloropyridin-2-yl)-2-(sec-butoxyimino)ethyl]-2-(trifluoromethyl)benzamide] | ≥ 50 | 
9 | 60 to 62 | CCO/N=C(/CNC(=O)c1ccccc1C(F)(F)F)c1ncc(C(F)(F)F)cc1Cl [Compound No. 2-185, (Z)—N-[2-[3-chloro-5-(trifluoromethyl)pyridin-2-yl]-2-(ethoxyimino)ethyl]-2-(trifluoromethyl)benzamide] |  | 
10 | 85 to 86 | CO/N=C(/CNC(=O)c1ccccc1C(F)(F)F)c1ncc(Br)cc1Cl [Compound No. 2-216, (Z)—N-[2-(5-bromo-3-chloropyridin-2-yl)-2-(methoxyimino)ethyl]-2-(trifluoromethyl)benzamide] | ≥ 50 | pest or weed control at 500 µg/mL [1]: ≥ 70%
11 |  | CC(C)ON=C(CNC(=O)c1ccccc1C(F)(F)F)c1ncc(C#CC(C)(C)C)cc1Cl [Compound No. 2-248, N-[2-[3-chloro-5-(3,3-dimethyl-1-butynyl)pyridin-2-yl]-2-(isopropoxyimino)ethyl]-2-(trifluoromethyl)benzamide] |  | pest or weed control at 500 µg/mL (Puccinia recondita): ≥ 70%
12 | 75 to 77 | CON=C(CN(C(=O)c1ccccc1C(F)(F)F)C1CC1)c1ncc(Cl)cc1Cl [4-007] |  | 
13 |  | CC(O/N=C(/CNC(=O)c1ccccc1C(F)(F)F)c1ncc(Cl)cc1Cl)c1ccc(F)cc1 (stereo not drawn) [Compound No. 2-174, (Z)—N-[2-(3,5-dichloropyridin-2-yl)-2-[1-(4-fluorophenyl)ethoxyimino]ethyl]-2-(trifluoromethyl)benzamide] | ≥ 50 | pest or weed control at 500 µg/mL (Puccinia recondita): ≥ 70%
14 | 54 to 57 | CC(C)O/N=C(\CNC(=O)c1ccccc1C(F)(F)F)c1ncc(Cl)cc1Cl [Compound No. 2-239, (E)-N-[2-(3,5-dichloropyridin-2-yl)-2-(isopropoxyimino)ethyl]-2-(trifluoromethyl)benzamide] |  | 
15 |  | CC(C)O/N=C(\c1ncc(Cl)cc1Cl)[C@H](C)NC(=O)c1ccccc1C(F)(F)F [Compound No. 2-132, (S)—N-[2-(3,5-dichloropyridin-2-yl)-2-(Z)-(isopropoxyimino)-1-methylethyl]-2-(trifluoromethyl)benzamide] |  | pest or weed control at 500 µg/mL [1]: ≥ 70%
16 | 107 to 108 | CC(C)O/N=C(/CNC(=O)c1ccccc1C(F)(F)F)c1ncc(Cl)cc1Cl [Compound No. 2-128, (Z)—N-[2-(3,5-dichloropyridin-2-yl)-2-(isopropoxyimino)ethyl]-2-(trifluoromethyl)benzamide] | ≥ 50 | 
17 |  | CON=C(CNC(=O)c1ccccc1C(F)(F)F)c1ncc(OC)cc1Cl [2-083, N-[2-(3-chloro-5-methoxypyridin-2-yl)-2-(methoxyimino)ethyl]-2-(trifluoromethyl)benzamide] |  | pest or weed control at 500 µg/mL (Botrytis cinerea): ≥ 70%
18 |  | CC(C)(C)ON=C(CNC(=O)c1ccccc1C(F)(F)F)c1ncc(Cl)cc1Cl [2-139, N-[2-(3,5-dichloropyridin-2-yl)-2-(tert-butoxyimino)ethyl]-2-(trifluoromethyl)benzamide] |  | pest or weed control at 500 µg/mL [1]: ≥ 70%
19 |  | CON=C(CNC(=O)c1ccccc1C(F)(F)F)c1ncc(OCC(F)(F)F)cc1Cl [Compound No. 2-223, N-[2-[3-chloro-5-(2,2,2-trifluoroethoxy)pyridin-2-yl]-2-(methoxyimino)ethyl]-2-(trifluoromethyl)benzamide] |  | pest or weed control at 500 µg/mL (Botrytis cinerea): ≥ 70%
20 | 100 to 102 | O=C(NC/C(=N/OCC(F)(F)F)c1ncc(Cl)cc1Cl)c1ccccc1C(F)(F)F [2-212, (Z)—N-[2-(3,5-dichloropyridin-2-yl)-2-(2,2,2-trifluoroethoxyimino)ethyl]-2-(trifluoromethyl)benzamide] | ≥ 50 | 
21 | 146 to 148 | CO/N=C(\CNC(=O)c1ccccc1C(F)(F)F)c1ccc(Cl)cc1Cl [Compound No. 1-004, (Z)—N-[2-(2,4-dichlorophenyl)-2-(methoxyimino)ethyl]-2-(trifluoromethyl)benzamide] |  | 

Row | Compound | melting point [°C] | pest or weed control at 100 µg/mL (Meloidogyne incognita) [%] | other results
22 | CCC(C)O/N=C(/CNC(=O)c1ccccc1C(F)(F)F)c1ncc(Cl)cc1Cl (stereo not drawn) [2-136, (Z)—N-[2-(3,5-dichloropyridin-2-yl)-2-(sec-butoxyimino)ethyl]-2-(trifluoromethyl)benzamide] | 68 to 70 |  | pest or weed control at 500 µg/mL (Puccinia recondita): ≥ 70%
